Reference: patent publication US9107411B2, “Indolecarboxamides and benzimidazolecarboxamides as insecticides and acaricides” (BAYER INTELLECTUAL PROPERTY GMBH, priority 2011, dated 2015)
Where two headings read alike, the source gives them in different places.

How the values were obtained:
[1] = test system: Boophilus microplus; assay: Boophilus microplus test (BOOPMI injection); format: in vivo; conditions: application rate 20 μg/animal; injected into the abdomen; after 7 days
Description: Boophilus microplus Test (BOOPMI Injection) Solvent: dimethyl sulphoxide To prepare an appropriate active ingredient formulation, 10 mg of active ingredient are mixed with 0.5 ml of solvent and the concentrate is diluted with solvent to the desired concentration. The active ingredient solution is injected into the abdomen (Boophilus microplus), and the animals are transferred into dishes and stored in a climate-controlled room. After 7 days, the efficacy in % is determined. The activity is assessed by laying of fertile eggs. 100% means that none of the ticks has laid any fertile eggs.

[2] = test system: Ctenocephalides felis; assay: Ctenocephalides felis oral (CTECFE); format: in vivo; conditions: application rate 100 ppm in citrated cattle blood; after 2 days
Description: Ctenocephalides felis Oral ([…]) Solvent: 1 part by weight of dimethyl sulphoxide For the purpose of preparing an appropriate active ingredient formulation, 10 mg of active ingredient are mixed with 0.5 ml of dimethyl sulphoxide. A portion of the concentrate is diluted with citrated cattle blood, and the desired concentration is prepared. About 20 unfed adult fleas (Ctenocephalides felis) are placed into a chamber which is closed at the top and bottom with gauze. A metal cylinder whose bottom end is closed with Parafilm is placed onto the chamber. The cylinder contains the blood/active ingredient formulation, which can be imbibed by the fleas through the Parafilm membrane. After 2 days, the kill in % is determined 100% means that all of the fleas have been killed; 0% means that none of the fleas have been killed.

[3] = test system: Lucilia cuprina larvae; assay: Lucilia cuprina test (LUCICU); format: in vivo; conditions: application rate 100 ppm; treated horse meat; after 2 days
Description: (§1) Lucilia cuprina Test (LUCICU) Solvent: dimethyl sulphoxide To prepare an appropriate active ingredient formulation, 10 mg of active ingredient are mixed with 0.5 ml of dimethyl sulphoxide and the concentrate is diluted with water to the desired concentration. Vessels containing horse meat treated with the active ingredient formulation of the desired concentration are populated with about 20 Lucilia cuprina larvae. After 2 days, the kill in % is determined. 100% means that all of the larvae have been killed; 0% means that none of the larvae have been killed.

[4] = test system: adult Musca domestica; assay: Musca domestica test (MUSCDO); format: in vivo; conditions: application rate 100 ppm; treated sponge; after 2 days
Description: as §1, with “Musca domestica” for “Lucilia cuprina”, “(MUSCDO)” for “(LUCICU)”, “a sponge” for “horse meat”, “adult Musca domestica.” for “about 20 Lucilia cuprina larvae.”, “determined” for “determined.”, “flies” for “larvae”

[5] = test system: Phaedon cochleariae; assay: Phaedon test (PHAECO spray treatment); format: in vivo; conditions: application rate 100 g/ha, Chinese cabbage leaf discs, after 7 days
Outline: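 Chinese cabbage leaf discs were sprayed with compound in acetone/DMF with emulsifier, diluted in water to the test concentration. After drying, discs were infested with mustard beetle larvae. Efficacy in % was scored after 7 days, where 100% means all larvae were killed and 0% means none.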

[6] = test system: Spodoptera frugiperda; assay: Spodoptera frugiperda test (SPODFR spray treatment); format: in vivo; conditions: application rate 100 g/ha; maize leaf discs; after 7 days
Outline: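 Maize leaf discs sprayed with active ingredient formulated in acetone/dimethylformamide with emulsifier, diluted in emulsifier-containing water to the desired concentration. After drying, discs were populated with armyworm caterpillars. Efficacy (%) scored after 7 days: 100% all caterpillars killed, 0% none killed.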

[7] = test system: Tetranychus urticae; assay: Tetranychus test, OP-resistant (TETRUR spray treatment); format: in vivo; conditions: application rate 100 g/ha; bean leaf discs; after 6 days
Outline: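 Bean leaf discs infested with all stages of OP-resistant T. urticae sprayed with compound formulated in acetone/DMF plus alkylaryl polyglycol ether emulsifier, diluted in water. Efficacy (% mites killed) scored after 6 days.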

[8] = logP (HPLC-MS); format: physicochemical
[9] = HPLC, reversed-phase column (C18), acidic range pH 2.7, acetonitrile (0.1% formic acid)/water gradient, 43° C., calibration with unbranched alkan-2-ones

| log p [8, 9] | chromatographic logP ([8]; HPLC, reversed-phase column (C18), acidic range pH 2.7, acetonitrile (0.1% formic acid)/water gradient, 43° C., calibration with unbranched alkan-2-ones, read-out: log p) | chromatographic logP ([8]; HPLC-MS) | SMILES | efficacy (laying of fertile eggs) [1] | efficacy (kill in %) [2] | efficacy (kill in %) [3] | efficacy (kill in %) [4] | efficacy in % [5] | efficacy in % [6] | efficacy in % [7] | pest or weed control at 100 g/ha ([5]; Phaedon cochleariae, foliar, 168 h, read-out: efficacy in %) |
| --- | --- | --- | --- | --- | --- | --- | --- | --- | --- | --- | --- |
| 3.57 | – | – | C#CCn1c(C(=O)NC(c2ccc(F)c(Br)c2)C(F)(F)F)cc2cc(C(=O)NC3(C#N)CC3)c(Cl)cc21 (stereo not drawn) [Compound 62] | 100% | 100% | 100% | 80% | 100% | 100% | 90% | – |
| 4.09 | – | – | CCn1c(C(=O)NC(c2cc(Cl)cc(Cl)c2)C(F)(F)F)cc2cc(C(=O)NC3(C#N)CC3)c(C)cc21 (stereo not drawn) [Compound 195] | 100% | 100% | 100% | 100% | 100% | 100% | 100% | – |
| 3.57 | – | – | C#CCn1c(C(=O)NC(c2ccc(F)c(Cl)c2)C(F)(F)F)cc2cc(C(=O)NC3CC3)c(Cl)cc21 (stereo not drawn) [Compound 63] | 100% | 100% | 100% | 100% | 100% | 100% | 100% | – |
| 4.16 | – | – | CCn1c(C(=O)NC(c2cccc(C(F)(F)F)c2)C(F)(F)F)cc2cc(C(=O)NC3(C)CC3)c(Cl)cc21 (stereo not drawn) [Compound 22] | 100% | 100% | 100% | 100% | 100% | 83% | 80% | – |
| 3.70 | – | – | CCn1c(C(=O)NC(c2ccc(F)c(Br)c2)C(F)(F)F)cc2cc(C(=O)NC3CC3)c(C)cc21 (stereo not drawn) [Compound 190] | 100% | 100% | 100% | 100% | 100% | 100% | 100% | – |
| 3.44 | – | – | Cn1c(C(=O)NC(c2ccc(F)c(Br)c2)C(F)(F)F)cc2cc(C(=O)NC3(C#N)CC3)c(Cl)cc21 (stereo not drawn) [Compound 52] | 100% | 100% | 100% | 100% | 100% | 100% | 100% | – |
| 4.43 | – | – | CCn1c(C(=O)NC(c2cc(Cl)c(Cl)c(Cl)c2)C(F)(F)F)cc2cc(C(=O)NC3(C#N)CC3)c(Cl)cc21 (stereo not drawn) [Compound 275] | 100% | 100% | 100% | 100% | 100% | 100% | 100% | – |
| – | 3.49 | 3.49 | C#CCn1c(C(=O)NC(c2cccc(C(F)(F)F)c2)C(F)(F)F)cc2cc(C(=O)NC3(C#N)CC3)c(Cl)cc21 (stereo not drawn) [Compound 57, 6-chloro-N^5-(1-cyanocyclopropyl)-1-(prop-2-yn-1-yl)-N^2-{2,2,2-trifluoro-1-[3-(trifluoromethyl)phenyl]ethyl}-1H-indole-2,5-dicarboxamide] | 100% | 100% | 100% | 100% | – | 100% | 100% | 100% |
| 4.06 | – | – | CCn1c(C(=O)NC(c2cccc(C(F)(F)F)c2)C(F)(F)F)cc2cc(C(=O)NCC(C)(F)F)c(Cl)cc21 (stereo not drawn) [Compound 10] | 100% | 95% | 100% | 100% | 100% | 83% | – | – |
